Key:
Type in all cases: in vivo, Lewis rats
GR = assay: Expression of GR in the iris and ciliary body in EIU (quantitative PCR); settings: after intravitreal injection in EIU
Protocol: (§1) Iris and ciliary body tissues are most involved in the EIU. In an attempt to understand the role of MR and GR in EIU model, we evaluated the expression of these two receptors in quantitative PCR in the iris/ciliary body 3 h, 6 h and 24 h after injection of LPS. We were surprised that the kinetics of MR and GR were not similar. 3 hours after induction of EIU (p<0.001), so before the infiltration of inflammatory cells, there was a decreased expression of MR, which was maintained up to 24 hours (p<0.001). On the contrary the decreased expression of GR was later in the 24th hour (p<0.01). Immunohistochemical studies confirmed the decrease in the rate of receptors in the iris. The decreased expression of MR and GR takes place mainly in the endothelial cells of vessels in the iris and iris stromal cells. At baseline, the binding of endogenous glucocorticoids to MR likely plays a role in anti-inflammatory. The reduction of early MR can be seen as a step prior to the onset of ocular inflammation.
(§2) The expression of MR and GR in the iris and ciliary body is increased after intravitreal injection of aldosterone (p<0.05). […] Presumably, the anti-inflammatory effect of aldosterone in this model is partly due to the increased expression of MR.

[1] = system: resident microglial cells of the retina and ciliary body; assay: Anti-IBA-1 immunohistochemistry of resident microglial cells in EIU; settings: 24 h after LPS and intravitreal injection, compared to eyes injected with the vehicle
Protocol: To evaluate the effect of aldosterone on resident microglial cells of the retina and ciliary body, we performed immunohistochemical studies with an anti-IBA-1 antibody coupled with a secondary antibody Alexa488 on cryostat sections 24 h after LPS injection and injection intravitreal aldosterone or spironolactone. […] The anti-inflammatory effect of aldosterone may be related to the deactivation of resident microglial cells.

IL-6 = assay: Chemokine/cytokine multiplex assay of ocular media in EIU: IL-6; settings: compared with control animals treated with the vehicle alone (FIG. 2)
Protocol: (§3) Aqueous humor and vitreous collected from each eye were pooled, diluted to obtain a final volume of 25 μL, and subjected to multiplex bead analysis. This method uses microspheres as the solid support for immunoassays (Vignali D A. Multiplexed particle-based flow cytometric assays. J Immunol Methods. 2000; 243:243-255.) and allows the titration of a greater number of cytokines with increased sensitivity than occurs with ELISA (Ooi K G, Galatowicz G, Towler H M, Lightman S L, Calder V L. Multiplex cytokine detection versus ELISA for aqueous humor: IL-5, IL-10, and IFNγ profiles in uveitis. Invest Ophthalmol Vis Sci. 2006; 47:272-277.). The rat cytokine/chemokine LINCO-16plex kit (Linco Research) was purchased from Invitrogen (Cergy-Pontoise, France). Chemokine MIP1α/CCL3, proinflammatory mediator TNF-α, cytokines IFN-γ/IL-4, and IL-6 were measured according to the manufacturer's instructions. The assay was performed in a 96-well filter plate with all the assay components provided in the kit. Standard curves for each cytokine were generated with a calibration kit (Bio-Rad, Hercules, Calif.). All incubation steps were performed at room temperature with medium orbital agitation and in the dark to protect the beads from light. Data acquisition and analysis were performed with the manager software version 4.1 (Bioplex; Bio-Rad) with four or five logistic parameters for standard curves. […]

MIP1α/CCL3 = assay: Chemokine/cytokine multiplex assay of ocular media in EIU: MIP1α/CCL3; settings: compared with control animals treated with the vehicle alone (FIG. 2)
Protocol: as §3

TNF-α = assay: Chemokine/cytokine multiplex assay of ocular media in EIU: TNF-α; settings: compared with control animals treated with the vehicle alone (FIG. 2)
Protocol: as §3

blood-ocular barrier = assay: Proteins present in eye fluids (leaking of the blood-ocular barrier) in EIU; settings: at 6 hours, versus vehicle
Text: Proteins present in eye fluids reflect the leaking of the blood-ocular barrier.

macrophages = assay: EDI positive cell counts in histological sections (immunohistochemistry) in EIU; settings: intravitreal 200 nM, 24 h after LPS, compared to eyes injected vehicle or spironolactone, p<0.05
Protocol: To evaluate the effect of intravitreal injection of 200 nM aldosterone and spironolactone 10 μM, immunohistochemical studies were performed on cryostat sections. An anti EDI antibody coupled with an Alexa488 secondary antibody was used to mark macrophages which are among the cells most involved in EIU. We conducted an EDI positive cell counts in histological sections 24 h after LPS injection and intravitreal injection of aldosterone or spironolactone.

IFN-γ/IL-4 = assay: Chemokine/cytokine multiplex assay of ocular media in EIU: IFN-γ/IL-4; settings: compared with control animals treated with the vehicle alone (FIG. 2)
Protocol: as §3

MR = assay: Expression of MR in the iris and ciliary body in EIU (quantitative PCR); settings: after intravitreal injection in EIU, p<0.05
Protocol: as §1, §2

[2] = system: Endotoxin-induced uveitis; assay: Endotoxin-induced uveitis, clinical score at slit lamp; settings: for severity of uveitis (clinical examination): slit lamp 24 hours after LPS
Protocol: Female Lewis rats (6- to 8-week old) weighing 230-250 g (Elevage Janvier, Le Genest Saint Isle, France) were used and handled in accordance with the ARVO Statement for the Use of Animals in Ophthalmic and Vision Research. Rats were anesthetized with intramuscular injection of ketamine (75 mg kg^−1; Virbac, Carros Cedex, France) and Largactil (0.5 mg kg^−1; Sanofi-aventis, Paris, France) before ocular injection and ET. At the end of the experiments, rats were anesthetized by intraperitoneal injection of pentobarbital (30 mg kg^−1; Sanofi-aventis) before blood collection by intracardiac puncture and then killed with a lethal dose of pentobarbital.
Endotoxin-induced uveitis was induced by footpad injection of 0.1 ml sterile pyrogen-free saline containing 500 μgkg^−1 LPS (from Salmonella typhimurium; Sigma-Aldrich). Animals were examined by slit lamp during the maximal severity of EIU developing in this model 24 h after the footpad injection. The intensity of clinical ocular inflammation was scored on a scale from 0 to 5 for each eye as described previously (Behar-Cohen F F, Parel J M, Pouliquen Y, Thillaye-Goldenberg B, Goureau O, Heydolph S et al. Iontophoresis of dexamethasone in the treatment of endotoxin-induced-uveitis in rats. Exp Eye Res 1997; 65: 533-545.): grade (0) indicates no inflammation; grade 1 indicates the presence of a minimal iris and conjunctival vasodilation but without the observation of flare or cells in the anterior chamber (AC); grade 2 indicates the presence of moderate iris and conjunctival vessel dilation but without evident flare or cells in the AC; grade 3 indicates the presence of intense iris vessels dilation, flare and less than 10 cells per slit lamp field in the AC; grade 4 indicates the presence of more severe clinical signs than grade 3, with more than 10 cells in the AC with or without the formation of a hypopyon; grade 5 indicates the presence of intense inflammatory reaction, fibrin formation in the AC and total seclusion of the pupil.
Clinical evaluation was performed in a masked manner by two observers. The mean clinical score of the two observers was recorded.
Lewis rats were anesthetized by intraperitoneal injection of 0.15 mL pentobarbital (5.47 g/100 mL saline). Pupils were dilated by instillation of one drop of tropicamide 5%. One drop of tetracaine 1% was administered for local anesthesia. Intravitreal injections (10 μL) of aldosterone (20 nM and 200 nM) and spironolactone (10 μM) were performed in both eyes using sterile syringes fitted with a 30-gauge needle (Microfine; Becton Dickinson AG, Meylan, France). Intravitreal injections were performed simultaneously with EIU induction, as described.
Results are expressed as mean±SEM. The Mann-Whitney U test was used to determine differences between groups. […]

With `C[C@]12CCC(=O)C=C1CC[C@@H]1[C@@H]2[C@@H](O)C[C@]2(C=O)[C@@H](C(=O)CO)CC[C@@H]12` [aldosterone, 11β,21-dihydroxy-3,20-dioxopregn-4-en-18-al] the “expression of GR in the iris and ciliary body” value (GR) was “increased”, the “state of microglial cells (IBA-1)” value [1] was “greater number of microglial cells were then branched into a latent state” and the “IL-6 in the ocular media” value (IL-6) was “significantly reduced”. The “MIP1α/CCL3 in the ocular media” value (MIP1α/CCL3) was “significantly reduced”, the “TNF-α in the ocular media” value (TNF-α) was “significantly reduced” and the “rate of protein in eye fluids” value (blood-ocular barrier) was “significantly reduced”. The “number of macrophages (EDI positive cell counts)” value (macrophages) was “decrease in the number of macrophages”, the “IFN-γ/IL-4 in the ocular media” value (IFN-γ/IL-4) was “significantly reduced” and the “expression of MR in the iris and ciliary body” value (MR) was “increased”. The “severity of uveitis (clinical examination)” value (from here on “severity of uveitis”) ([2]; injection 1 nM) was “had no effect”, the “severity of uveitis” value ([2]; intravitreal injection 20 nM, p<0.05) was “severity decrease statistically significant” and the “severity of uveitis” value ([2]; intravitreal injection 200 nM, p<0.001) was “severity decrease statistically significant”.
In the case of `CC(=O)S[C@@H]1CC2=CC(=O)CC[C@]2(C)[C@H]2CC[C@@]3(C)[C@@H](CC[C@@]34CCC(=O)O4)[C@H]12` [spironolactone], the “expression of GR in the iris and ciliary body” value (GR) is reported as “has no effect”, the “state of microglial cells (IBA-1)” value [1] is reported as “larger number of microglial cells were round, and consequently active” and the “IL-6 in the ocular media” value (IL-6) is reported as “significantly increased”. For the same compound, the “MIP1α/CCL3 in the ocular media” value (MIP1α/CCL3) was “significantly increased”, the “TNF-α in the ocular media” value (TNF-α) was “significantly increased” and the “rate of protein in eye fluids” value (blood-ocular barrier) was “had no effect”. The “IFN-γ/IL-4 in the ocular media” value (IFN-γ/IL-4) was “significantly increased”, the “expression of MR in the iris and ciliary body” value (MR) was “exacerbated the decrease in MR” and the “intensity of uveitis (clinical examination)” value ([2]; intravitreal injection 10 microM, 24 hours) was “increased the intensity of uveitis”.
